Target: T1, Kv1.5 K+ channel (Homo sapiens, UniProt P22460)
T1 construct: gene KCNA5; human Kv1.5 stably expressed in LTK cells (LTK-Kv1.5)
Assay: patch clamp of Kv1.[…] currents in LTK-Kv1.[…] cells
Type: cell-based

T1 sequence (P22460 whole entry): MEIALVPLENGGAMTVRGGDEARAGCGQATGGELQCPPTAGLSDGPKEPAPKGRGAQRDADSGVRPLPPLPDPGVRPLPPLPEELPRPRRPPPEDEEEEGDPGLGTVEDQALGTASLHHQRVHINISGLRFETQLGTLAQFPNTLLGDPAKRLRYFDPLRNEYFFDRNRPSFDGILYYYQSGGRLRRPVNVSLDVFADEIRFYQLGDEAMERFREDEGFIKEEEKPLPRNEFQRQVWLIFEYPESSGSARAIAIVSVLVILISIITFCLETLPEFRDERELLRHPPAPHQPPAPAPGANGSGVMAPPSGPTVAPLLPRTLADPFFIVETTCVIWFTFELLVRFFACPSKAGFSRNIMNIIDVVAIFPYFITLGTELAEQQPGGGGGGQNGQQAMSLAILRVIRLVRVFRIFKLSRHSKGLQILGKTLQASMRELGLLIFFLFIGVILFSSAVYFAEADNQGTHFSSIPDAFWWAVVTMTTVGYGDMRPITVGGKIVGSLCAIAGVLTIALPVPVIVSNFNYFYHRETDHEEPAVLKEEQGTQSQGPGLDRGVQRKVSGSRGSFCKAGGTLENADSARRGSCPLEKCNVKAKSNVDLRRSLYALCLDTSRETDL

Structure (SMILES)	IC50 [nM]
CO[C@@H](CC[C@H](C)[C@H]1O[C@]23C[C@H](OC(=O)C[C@H]([C@@H](C)O)OC(=O)CC(=O)C(C)(CC2(C)C)OO3)[C@@H]1C)c1cccc(O)c1 [compound 2, neo-debromoaplysiatoxin J]	1640 ± 150
CO[C@@H](CC[C@H](C)[C@H]1O[C@]2(O)[C@H]3[C@@H](OC(=O)C[C@]3(O)[C@H](C)CC2(C)C)[C@@H]1C)c1cccc(O)c1 [compound 1, neo-debromoaplysiatoxin I]	2590 ± 370

Reference: PMC10059712, “Structure Elucidation of Two Intriguing Neo-Debromoaplysiatoxin Derivatives from Marine Cyanobacterium Lyngbya sp. Showing Strong Inhibition of Kv1.5 Potassium Channel and Differential Cytotoxicity” (Molecules, 2023)
